Values of other authors as cited in patent US10071072B2, “Method for treating neurotrauma” (N.V. Nutricia, priority 2011, dated 2018).

Tested on: neurotrauma
Details: in vivo supply; King et al. J. Neurosci.

For `CC/C=C\C/C=C\C/C=C\CCCCCCCC(=O)O` [α-linolenic acid], the neuroprotection in neurotrauma is listed as “neuroprotective”.
